Test results published in paper PMC3682108 (Journal of Infection and Chemotherapy, 2012).
Converted amounts (≈) assume the structure as drawn. Read-outs that look alike come from different tables or passages of the source. Blank lines part the entries; values can stand above or below the compound they belong to.

How the values were obtained:
[1] = system: methicillin-resistant Staphylococcus aureus (MRSA); type: in vivo, Japanese patients; conditions: for Clinical success %, Wound or burn: MITT-MRSA, daptomycin 4 mg/kg qd n/N 31/38, vancomycin 1 g bid 11/13, at TOC; for Clinical response, wound or burn: daptomycin 4 mg/kg qd, wound or burn n = 38
[2] = system: methicillin-resistant Staphylococcus aureus (MRSA); assay: EAC-assessed microbiological response at test-of-cure, MITT-MRSA population; type: in vivo, Japanese patients; conditions: daptomycin n/N 0/2, vancomycin 0/1, at TOC
Safety evaluation = type: in vivo, Japanese patients; conditions: for Recipients with CPK levels >200 U/l: human, in vivo; for Maximum CPK level in the recipient with CPK >500 U/l: single patient per group
baseline MRSA isolates = assay: microbe, parasite or virus in culture; type: cell-based, Staphylococcus aureus
[3] = Population pharmacokinetics of daptomycin in plasma by baseline renal function; conditions: 4 mg/kg once daily
[4] = 74 baseline MRSA isolates at screening, broth microdilution, CLSI M7-A7

Compound: CCCCCCCCCC(=O)N[C@@H](Cc1c[nH]c2ccccc12)C(=O)N[C@H](CC(N)=O)C(=O)N[C@@H](CC(=O)O)C(=O)N[C@@H]1C(=O)NCC(=O)N[C@@H](CCCN)C(=O)N[C@@H](CC(=O)O)C(=O)N[C@H](C)C(=O)N[C@@H](CC(=O)O)C(=O)NCC(=O)N[C@H](CO)C(=O)N[C@@H]([C@H](C)CC(=O)O)C(=O)N[C@@H](CC(=O)c2ccccc2N)C(=O)O[C@@H]1C [Daptomycin]
Clinical success %, Wound or burn [1]: 81.6%
Clinical response, wound or burn ([1]; baseline MRSA daptomycin MIC 0.25): 87.5%
Clinical response, wound or burn ([1]; baseline MRSA daptomycin MIC 0.5): 82.4%
Clinical response, wound or burn ([1]; baseline MRSA daptomycin MIC 1): 50.0%
Microbiological success %, Other infection [2]: 0.0%
Recipients with CPK levels >200 U/l (Safety evaluation): 9.1%
Drug-related serious adverse event (kind) (Safety evaluation; one patient, just after initial dosing, resolved 4 days after discontinuation): anaphylactic shock
Maximum CPK level in the recipient with CPK >500 U/l (Safety evaluation): 2,545 U/l
MIC90 (baseline MRSA isolates; baseline isolates): 0.5 µg/mL (≈ 0.309 µM)
MIC range (baseline MRSA isolates; baseline isolates): 0.25 to 1 µg/mL
Mean CL/wt lower than in patients with normal renal function (CLcr >80 ml/min) ([3]; mild renal impairment (CLcr 50–80 ml/min)): approximately 15%
Mean CL/wt lower than in patients with normal renal function (CLcr >80 ml/min) ([3]; moderate renal impairment (CLcr 30 to <50 ml/min)): approximately 15%
AUC relative to patients with normal renal function ([3]; one patient with CLcr <30 ml/min): approximately 1.4 times higher
Mean CL/wt lower than in patients with normal renal function (CLcr >80 ml/min) ([3]; severe renal impairment (CLcr <30 ml/min)): ~38%

Compound: CN[C@H](CC(C)C)C(=O)N[C@H]1C(=O)N[C@@H](CC(N)=O)C(=O)N[C@H]2C(=O)N[C@H]3C(=O)N[C@H](C(=O)N[C@H](C(=O)O)c4cc(O)cc(O)c4-c4cc3ccc4O)[C@H](O)c3ccc(c(Cl)c3)Oc3cc2cc(c3O[C@@H]2O[C@H](CO)[C@@H](O)[C@H](O)[C@H]2O[C@H]2C[C@](C)(N)[C@H](O)[C@H](C)O2)Oc2ccc(cc2Cl)[C@H]1O [Vancomycin, vancomycin]
Clinical success %, Wound or burn [1]: 84.6%
Microbiological success %, Other infection [2]: 0.0%
Recipients with CPK levels >200 U/l (Safety evaluation): 9.1%
Maximum CPK level in the recipient with CPK >500 U/l (Safety evaluation): 592 U/l
MIC90 (baseline MRSA isolates; [4]): 1 µg/mL (≈ 0.69 µM)
MIC range (baseline MRSA isolates; [4]): 0.5 to 2 µg/mL

Compound: NCC[C@H](O)C(=O)N[C@@H]1C[C@H](N)[C@@H](O[C@H]2O[C@H](CN)CC[C@H]2N)[C@H](O)[C@H]1O[C@H]1O[C@H](CO)[C@@H](O)[C@H](N)[C@H]1O [arbecacin]
MIC range (baseline MRSA isolates; [4]): 0.25 to 4 µg/mL
MIC90 (baseline MRSA isolates; Staphylococcus aureus, MRSA): 2 µg/mL (≈ 3.62 µM)

Compound: Cc1onc(-c2ccccc2)c1C(=O)N[C@@H]1C(=O)N2[C@@H]1SC(C)(C)[C@@H]2C(=O)O [oxacillin]
MIC90 (baseline MRSA isolates; Staphylococcus aureus, MRSA): > 128 µg/mL

Second part, the compound after the results:

MIC range (baseline MRSA isolates; [4]): 1 to 4 µg/mL
MIC90 (baseline MRSA isolates; Staphylococcus aureus, MRSA): 2 µg/mL (≈ 5.93 µM)
Compound: CC(=O)NC[C@H]1CN(c2ccc(N3CCOCC3)c(F)c2)C(=O)O1 [linezolid]

MIC90 (baseline MRSA isolates; [4]): 4 µg/mL
MIC range (baseline MRSA isolates; [4]): 0.25 to 8 µg/mL
Compound: teicoplanin
